# Assay results taken from publication PMC7827406, “Structure–Activity Relationship (SAR) Study of Spautin-1 to Entail the Discovery of Novel NEK4 Inhibitors” (International Journal of Molecular Sciences, 2021).
# Like-named read-outs stand apart in the source and are kept apart here.
# What was measured:
# Assay in all cases: biochemical
# Parameters in all cases: Eurofins KinaseProfiler full panel at Km ATP, residual kinase activity (%) relative to DMSO
# [1] = target: T1, ACK1(h) (Homo sapiens, UniProt Q07912)
# T1 construct: gene TNK2
# T1 sequence (Q07912 whole entry): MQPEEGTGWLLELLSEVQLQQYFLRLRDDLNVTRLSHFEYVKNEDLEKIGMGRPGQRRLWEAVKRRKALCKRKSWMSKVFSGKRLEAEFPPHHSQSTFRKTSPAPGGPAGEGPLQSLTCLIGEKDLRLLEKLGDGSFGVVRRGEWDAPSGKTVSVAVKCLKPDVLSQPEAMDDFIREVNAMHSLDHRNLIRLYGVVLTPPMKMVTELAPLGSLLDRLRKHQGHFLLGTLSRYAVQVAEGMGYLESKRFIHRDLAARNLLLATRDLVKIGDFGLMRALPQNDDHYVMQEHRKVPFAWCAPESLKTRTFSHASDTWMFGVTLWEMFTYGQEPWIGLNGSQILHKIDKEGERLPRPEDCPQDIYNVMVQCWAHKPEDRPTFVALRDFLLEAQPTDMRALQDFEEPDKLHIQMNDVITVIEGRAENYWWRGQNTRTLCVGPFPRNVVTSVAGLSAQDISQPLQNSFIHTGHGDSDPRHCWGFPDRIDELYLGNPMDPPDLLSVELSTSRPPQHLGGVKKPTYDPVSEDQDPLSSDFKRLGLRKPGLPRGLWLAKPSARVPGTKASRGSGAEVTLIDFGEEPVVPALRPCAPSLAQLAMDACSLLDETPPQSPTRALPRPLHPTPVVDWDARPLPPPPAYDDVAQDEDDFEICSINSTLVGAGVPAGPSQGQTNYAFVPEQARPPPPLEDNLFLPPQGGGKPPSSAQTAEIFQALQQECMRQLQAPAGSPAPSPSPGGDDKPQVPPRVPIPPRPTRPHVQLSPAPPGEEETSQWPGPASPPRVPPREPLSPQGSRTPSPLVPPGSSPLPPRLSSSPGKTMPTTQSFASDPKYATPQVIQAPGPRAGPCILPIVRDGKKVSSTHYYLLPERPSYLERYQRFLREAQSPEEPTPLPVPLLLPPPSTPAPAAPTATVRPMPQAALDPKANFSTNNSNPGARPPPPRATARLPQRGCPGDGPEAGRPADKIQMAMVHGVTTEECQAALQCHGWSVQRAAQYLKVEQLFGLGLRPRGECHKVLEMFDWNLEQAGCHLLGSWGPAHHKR
# Procedure, shortened: (§1)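 Compounds screened at 10 µM in radiometric kinase activity assays at Km ATP, reported as remaining kinase activity (%). A KINOMEscan competition-binding screen at 10 µM measured DNA-tagged kinase retained on immobilized active-site ligand by qPCR.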
# [2] = target: T2, ALK2(h) (Homo sapiens, UniProt Q04771)
# T2 construct: gene ACVR1
# T2 sequence (Q04771 1-509): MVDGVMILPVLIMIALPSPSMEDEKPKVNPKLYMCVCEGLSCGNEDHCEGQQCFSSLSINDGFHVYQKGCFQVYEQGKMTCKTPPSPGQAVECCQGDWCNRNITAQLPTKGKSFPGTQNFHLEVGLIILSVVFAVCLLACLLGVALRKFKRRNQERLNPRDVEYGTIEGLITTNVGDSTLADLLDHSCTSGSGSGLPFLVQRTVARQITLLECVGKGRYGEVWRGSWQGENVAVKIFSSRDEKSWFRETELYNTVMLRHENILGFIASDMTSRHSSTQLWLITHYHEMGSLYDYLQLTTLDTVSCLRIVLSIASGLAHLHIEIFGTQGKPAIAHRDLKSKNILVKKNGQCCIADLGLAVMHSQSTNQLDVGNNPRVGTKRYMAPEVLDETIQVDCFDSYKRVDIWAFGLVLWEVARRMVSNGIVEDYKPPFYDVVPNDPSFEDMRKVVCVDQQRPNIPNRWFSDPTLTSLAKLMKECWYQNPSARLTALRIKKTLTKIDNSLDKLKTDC
# Procedure, shortened: as §1
# [3] = target: T3, Abl (M351T)(h) (Homo sapiens, UniProt P00519, M351T)
# T3 construct: gene ABL1
# Procedure, shortened: as §1
# [4] = target: T4, MOK(h) (Homo sapiens, UniProt Q9UQ07)
# T4 sequence (Q9UQ07 1-419): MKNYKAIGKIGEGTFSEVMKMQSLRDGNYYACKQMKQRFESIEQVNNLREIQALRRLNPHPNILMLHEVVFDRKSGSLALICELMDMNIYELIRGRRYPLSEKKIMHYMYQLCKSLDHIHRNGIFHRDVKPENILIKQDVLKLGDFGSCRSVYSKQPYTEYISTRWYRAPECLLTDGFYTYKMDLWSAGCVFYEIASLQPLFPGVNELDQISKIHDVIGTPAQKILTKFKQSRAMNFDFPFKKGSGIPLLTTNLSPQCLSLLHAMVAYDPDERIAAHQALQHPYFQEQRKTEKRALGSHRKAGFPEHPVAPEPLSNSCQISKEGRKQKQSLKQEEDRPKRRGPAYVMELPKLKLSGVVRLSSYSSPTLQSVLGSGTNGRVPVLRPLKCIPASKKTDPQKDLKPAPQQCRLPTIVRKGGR
# Procedure, shortened: as §1
# [5] = target: T5, SAPK2b(h) (Homo sapiens, UniProt Q15759)
# T5 construct: gene MAPK11
# T5 sequence (Q15759 whole entry): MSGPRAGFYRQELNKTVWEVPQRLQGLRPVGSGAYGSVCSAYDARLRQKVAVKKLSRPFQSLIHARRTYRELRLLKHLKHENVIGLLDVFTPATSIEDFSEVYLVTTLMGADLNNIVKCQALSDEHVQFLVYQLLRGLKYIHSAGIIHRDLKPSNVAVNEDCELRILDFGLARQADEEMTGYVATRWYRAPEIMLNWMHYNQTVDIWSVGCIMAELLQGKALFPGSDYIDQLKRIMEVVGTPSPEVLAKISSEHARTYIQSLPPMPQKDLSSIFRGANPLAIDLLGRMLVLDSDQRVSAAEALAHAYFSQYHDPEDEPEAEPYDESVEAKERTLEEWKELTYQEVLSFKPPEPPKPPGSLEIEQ
# Procedure, shortened: as §1
# [6] = target: SBK1(h) (Homo sapiens, UniProt Q52WX2)
# SBK1(h), sequence (Q52WX2 whole entry): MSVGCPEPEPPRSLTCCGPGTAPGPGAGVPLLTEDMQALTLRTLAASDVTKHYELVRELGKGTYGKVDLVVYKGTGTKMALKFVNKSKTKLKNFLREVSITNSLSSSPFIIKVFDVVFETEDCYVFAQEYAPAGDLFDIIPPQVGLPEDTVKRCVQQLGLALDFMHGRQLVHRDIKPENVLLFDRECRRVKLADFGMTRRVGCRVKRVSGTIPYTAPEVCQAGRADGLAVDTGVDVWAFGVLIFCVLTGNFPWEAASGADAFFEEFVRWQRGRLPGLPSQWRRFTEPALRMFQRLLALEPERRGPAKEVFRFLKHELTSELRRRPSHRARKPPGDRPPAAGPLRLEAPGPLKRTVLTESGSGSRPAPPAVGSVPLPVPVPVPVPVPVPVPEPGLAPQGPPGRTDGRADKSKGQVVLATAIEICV
# Procedure, shortened: as §1
# [7] = target: T6, TAO3(h) (Homo sapiens, UniProt Q9H2K8)
# T6 construct: gene TAOK3
# T6 sequence (Q9H2K8 1-898): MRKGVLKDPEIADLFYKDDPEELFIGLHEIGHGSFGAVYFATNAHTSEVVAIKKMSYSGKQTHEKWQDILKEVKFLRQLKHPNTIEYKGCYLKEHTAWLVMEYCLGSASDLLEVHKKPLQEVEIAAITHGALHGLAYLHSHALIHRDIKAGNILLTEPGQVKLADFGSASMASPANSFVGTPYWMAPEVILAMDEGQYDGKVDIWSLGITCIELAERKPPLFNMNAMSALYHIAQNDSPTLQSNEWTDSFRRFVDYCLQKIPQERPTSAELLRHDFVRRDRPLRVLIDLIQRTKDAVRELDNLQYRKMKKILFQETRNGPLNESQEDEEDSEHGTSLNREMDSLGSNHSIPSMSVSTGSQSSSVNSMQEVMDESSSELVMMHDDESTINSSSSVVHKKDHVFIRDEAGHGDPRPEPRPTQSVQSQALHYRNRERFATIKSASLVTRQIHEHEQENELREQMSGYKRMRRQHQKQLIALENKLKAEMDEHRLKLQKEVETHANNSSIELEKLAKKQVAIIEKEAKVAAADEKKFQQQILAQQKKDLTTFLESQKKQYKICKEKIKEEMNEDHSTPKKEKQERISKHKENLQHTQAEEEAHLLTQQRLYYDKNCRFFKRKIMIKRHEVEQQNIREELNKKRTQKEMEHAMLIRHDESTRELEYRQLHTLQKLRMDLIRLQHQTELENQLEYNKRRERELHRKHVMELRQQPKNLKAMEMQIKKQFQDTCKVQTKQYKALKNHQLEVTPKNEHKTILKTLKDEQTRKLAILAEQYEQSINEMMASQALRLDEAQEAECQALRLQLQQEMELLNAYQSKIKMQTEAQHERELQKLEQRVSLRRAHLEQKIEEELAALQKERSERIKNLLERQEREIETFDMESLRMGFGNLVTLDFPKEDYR
# Procedure, shortened: as §1
# [8] = read-out: Residual activity (%) Spautin-1 5aa
# [9] = read-out: Residual activity (%) 5as
# [10] = read-out: Residual activity (%) 5at
# [11] = read-out: Residual activity (%) 5ay
smiles,measurement,setting,value
"Fc1ccc(CNc2ncnc3ccc(F)cc23)cc1 [5aa, 6-Fluoro-N-(4-fluorobenzyl)-4-Quinazolinamine]",remaining activity at 10 µM,[1]; [8],85%
same,remaining activity at 10 µM,[2]; [8],60%
same,remaining activity at 10 µM,[3]; [8],93%
same,remaining activity at 10 µM,[4]; [8],89%
same,remaining activity at 10 µM,[5]; [8],79%
same,remaining activity at 10 µM,[6]; [8],106%
same,remaining activity at 10 µM,[7]; [8],94%
"Fc1ccc(CCNc2ncnc3ccc(F)cc23)cc1 [5as, 6-Fluoro-N-[2-(4-Fluorophenyl)Ethyl]-4-Quinazolinamine]",remaining activity at 10 µM,[1]; [9],84%
same,remaining activity at 10 µM,[2]; [9],45%
same,remaining activity at 10 µM,[3]; [9],73%
same,remaining activity at 10 µM,[4]; [9],86%
same,remaining activity at 10 µM,[5]; [9],95%
same,remaining activity at 10 µM,[6]; [9],95%
same,remaining activity at 10 µM,[7]; [9],78%
"Fc1ccc2ncnc(NCCc3ccc(Cl)cc3)c2c1 [5at, N-[2-(4-Chlorophenyl)Ethyl]-6-Fluoro-4-Quinazolinamine]",remaining activity at 10 µM,[1]; [10],71%
same,remaining activity at 10 µM,[2]; [10],58%
same,remaining activity at 10 µM,[3]; [10],69%
same,remaining activity at 10 µM,[4]; [10],100%
same,remaining activity at 10 µM,[5]; [10],84%
same,remaining activity at 10 µM,[6]; [10],103%
same,remaining activity at 10 µM,[7]; [10],82%
"COc1ccc2ncnc(Nc3cccc(F)c3)c2c1 [5ay, N-(3-Fluorophenyl)-6-Methoxy-4-Quinazolinamine]",remaining activity at 10 µM,[1]; [11],56%
same,remaining activity at 10 µM,[2]; [11],50%
same,remaining activity at 10 µM,[3]; [11],76%
same,remaining activity at 10 µM,[4]; [11],65%
same,remaining activity at 10 µM,[5]; [11],83%
same,remaining activity at 10 µM,[6]; [11],83%
same,remaining activity at 10 µM,[7]; [11],77%
